Results from ChEMBL document CHEMBL1909046, “DrugMatrix in vitro pharmacology data”.

What was measured:
Cytochrome P450 2E1 = Cytochrome P450 2E1 (Homo sapiens, UniProt P05181); details: bti-tn-5b1-4; further: in other assays of this panel Not Active means under 50% inhibition at 10 µM
D(3) dopamine receptor = D(3) dopamine receptor (Homo sapiens, UniProt P35462); assay: DRUGMATRIX: Dopamine D3 radioligand binding (ligand: [3H] Spiperone); format: cell membranes, CHO, Membrane
[1] = target: Voltage-gated inwardly rectifying potassium channel KCNH2 (Homo sapiens, UniProt Q12809); details: hek293; further: in other assays of this panel Not Active means under 50% inhibition at 10 µM
Chain of Voltage-gated inwardly rectifying potassium channel KCNH2 (Q12809 whole entry): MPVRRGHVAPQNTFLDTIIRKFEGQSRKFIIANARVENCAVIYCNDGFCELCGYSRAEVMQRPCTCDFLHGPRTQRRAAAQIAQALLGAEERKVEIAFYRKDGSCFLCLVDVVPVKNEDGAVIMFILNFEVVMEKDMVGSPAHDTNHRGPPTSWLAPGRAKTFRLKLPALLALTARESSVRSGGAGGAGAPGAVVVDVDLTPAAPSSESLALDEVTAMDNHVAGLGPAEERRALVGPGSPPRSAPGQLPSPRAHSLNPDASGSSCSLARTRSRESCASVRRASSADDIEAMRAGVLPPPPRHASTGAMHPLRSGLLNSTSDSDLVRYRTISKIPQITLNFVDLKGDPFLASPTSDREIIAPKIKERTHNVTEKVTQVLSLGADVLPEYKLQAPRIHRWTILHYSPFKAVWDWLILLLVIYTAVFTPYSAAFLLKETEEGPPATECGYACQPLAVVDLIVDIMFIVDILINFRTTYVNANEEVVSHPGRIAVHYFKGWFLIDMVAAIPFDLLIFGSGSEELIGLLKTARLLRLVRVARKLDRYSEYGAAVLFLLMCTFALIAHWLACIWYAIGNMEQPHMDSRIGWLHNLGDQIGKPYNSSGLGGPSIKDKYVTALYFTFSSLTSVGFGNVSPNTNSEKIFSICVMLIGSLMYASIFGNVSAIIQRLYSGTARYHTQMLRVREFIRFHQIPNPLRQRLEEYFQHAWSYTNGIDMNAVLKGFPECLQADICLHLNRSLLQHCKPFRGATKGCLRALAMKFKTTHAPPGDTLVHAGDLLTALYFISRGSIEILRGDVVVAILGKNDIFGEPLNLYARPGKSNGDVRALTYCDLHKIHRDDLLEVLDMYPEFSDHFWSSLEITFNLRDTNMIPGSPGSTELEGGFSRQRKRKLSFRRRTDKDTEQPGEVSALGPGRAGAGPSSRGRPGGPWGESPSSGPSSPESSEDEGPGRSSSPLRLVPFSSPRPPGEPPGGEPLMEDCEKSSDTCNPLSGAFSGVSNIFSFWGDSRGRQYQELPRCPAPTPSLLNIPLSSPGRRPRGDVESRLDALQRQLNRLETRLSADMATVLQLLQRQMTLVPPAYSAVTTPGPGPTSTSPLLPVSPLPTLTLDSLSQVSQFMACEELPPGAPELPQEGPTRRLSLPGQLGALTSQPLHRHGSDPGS

[2] = target: Sodium-dependent noradrenaline transporter (Homo sapiens, UniProt P23975); assay: DRUGMATRIX: Norepinephrine Transporter radioligand binding (ligand: [125I] RTI-55); format: cell membranes, MDCK, Membrane; details: Not Active = under 50% inhibition at 10 µM
Chain of Sodium-dependent noradrenaline transporter (P23975 whole entry): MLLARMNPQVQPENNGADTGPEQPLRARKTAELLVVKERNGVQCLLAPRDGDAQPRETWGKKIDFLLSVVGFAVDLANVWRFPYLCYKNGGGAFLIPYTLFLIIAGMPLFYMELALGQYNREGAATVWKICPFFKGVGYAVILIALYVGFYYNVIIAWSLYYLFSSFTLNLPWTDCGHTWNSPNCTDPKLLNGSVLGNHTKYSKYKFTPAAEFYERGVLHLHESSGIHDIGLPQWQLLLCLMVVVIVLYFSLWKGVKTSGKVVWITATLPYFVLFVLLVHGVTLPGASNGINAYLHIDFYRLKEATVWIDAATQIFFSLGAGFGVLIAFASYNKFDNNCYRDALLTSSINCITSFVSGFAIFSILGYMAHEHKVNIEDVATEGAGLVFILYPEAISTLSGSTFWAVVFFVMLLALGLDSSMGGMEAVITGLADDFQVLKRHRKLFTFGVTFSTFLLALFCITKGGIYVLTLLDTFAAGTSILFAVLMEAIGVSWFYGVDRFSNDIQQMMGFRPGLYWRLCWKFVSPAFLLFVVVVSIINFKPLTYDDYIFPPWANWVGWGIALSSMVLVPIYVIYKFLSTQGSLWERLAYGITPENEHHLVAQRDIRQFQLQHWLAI

Cytochrome P450 2D6 = Cytochrome P450 2D6 (Homo sapiens, UniProt P10635); details: bti-tn-5b1-4; further: in other assays of this panel Not Active means under 50% inhibition at 10 µM
Chain of Cytochrome P450 2D6 (P10635 whole entry): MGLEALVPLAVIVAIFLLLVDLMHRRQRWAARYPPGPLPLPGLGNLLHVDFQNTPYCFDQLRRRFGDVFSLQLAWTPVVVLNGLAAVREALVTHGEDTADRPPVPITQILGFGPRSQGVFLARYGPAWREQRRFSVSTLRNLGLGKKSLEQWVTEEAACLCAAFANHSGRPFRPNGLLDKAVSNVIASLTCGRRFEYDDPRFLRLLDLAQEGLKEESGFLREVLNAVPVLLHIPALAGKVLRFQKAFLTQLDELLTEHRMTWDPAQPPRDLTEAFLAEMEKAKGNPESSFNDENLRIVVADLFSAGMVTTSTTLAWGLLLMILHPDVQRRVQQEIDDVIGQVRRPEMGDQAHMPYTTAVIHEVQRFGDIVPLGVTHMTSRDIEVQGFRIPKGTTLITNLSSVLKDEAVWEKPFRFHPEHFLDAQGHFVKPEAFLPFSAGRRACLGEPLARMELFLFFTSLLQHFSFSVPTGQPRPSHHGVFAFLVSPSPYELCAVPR

Mu-type opioid receptor = Mu-type opioid receptor (Homo sapiens, UniProt P35372); assay: DRUGMATRIX: Opiate mu (OP3, MOP) radioligand binding (ligand: [3H] Diprenorphine); format: cell membranes, CHO-K1, Membrane; details: Not Active = under 50% inhibition at 10 µM
Chain of Mu-type opioid receptor (P35372 whole entry): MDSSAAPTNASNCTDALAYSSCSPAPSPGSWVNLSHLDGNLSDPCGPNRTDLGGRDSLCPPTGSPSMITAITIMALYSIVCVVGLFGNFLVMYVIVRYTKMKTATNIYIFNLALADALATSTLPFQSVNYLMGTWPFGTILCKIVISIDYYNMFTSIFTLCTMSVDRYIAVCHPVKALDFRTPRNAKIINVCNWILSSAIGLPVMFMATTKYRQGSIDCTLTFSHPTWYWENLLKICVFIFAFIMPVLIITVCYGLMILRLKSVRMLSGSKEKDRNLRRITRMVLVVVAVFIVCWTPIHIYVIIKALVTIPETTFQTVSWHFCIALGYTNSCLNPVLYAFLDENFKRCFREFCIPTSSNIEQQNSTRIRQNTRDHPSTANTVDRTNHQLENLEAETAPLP

Cytochrome P450 2C19 = Cytochrome P450 2C19 (Homo sapiens, UniProt P33261); details: bti-tn-5b1-4; further: in other assays of this panel Not Active means under 50% inhibition at 10 µM
Chain of Cytochrome P450 2C19 (P33261 whole entry): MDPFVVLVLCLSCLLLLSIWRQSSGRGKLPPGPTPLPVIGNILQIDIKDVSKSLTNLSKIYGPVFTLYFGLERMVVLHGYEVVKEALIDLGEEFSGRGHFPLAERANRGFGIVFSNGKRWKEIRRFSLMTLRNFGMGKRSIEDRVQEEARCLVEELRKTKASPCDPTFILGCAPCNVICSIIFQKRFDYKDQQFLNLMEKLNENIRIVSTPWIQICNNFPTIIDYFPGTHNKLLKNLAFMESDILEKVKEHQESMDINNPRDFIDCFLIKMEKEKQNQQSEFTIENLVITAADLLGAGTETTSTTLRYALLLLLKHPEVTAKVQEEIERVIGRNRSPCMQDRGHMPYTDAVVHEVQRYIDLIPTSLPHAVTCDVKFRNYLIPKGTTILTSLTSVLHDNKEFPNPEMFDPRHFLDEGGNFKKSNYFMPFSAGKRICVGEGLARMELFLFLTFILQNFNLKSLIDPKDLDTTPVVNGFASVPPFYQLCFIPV

Chain of D(3) dopamine receptor (P35462 whole entry): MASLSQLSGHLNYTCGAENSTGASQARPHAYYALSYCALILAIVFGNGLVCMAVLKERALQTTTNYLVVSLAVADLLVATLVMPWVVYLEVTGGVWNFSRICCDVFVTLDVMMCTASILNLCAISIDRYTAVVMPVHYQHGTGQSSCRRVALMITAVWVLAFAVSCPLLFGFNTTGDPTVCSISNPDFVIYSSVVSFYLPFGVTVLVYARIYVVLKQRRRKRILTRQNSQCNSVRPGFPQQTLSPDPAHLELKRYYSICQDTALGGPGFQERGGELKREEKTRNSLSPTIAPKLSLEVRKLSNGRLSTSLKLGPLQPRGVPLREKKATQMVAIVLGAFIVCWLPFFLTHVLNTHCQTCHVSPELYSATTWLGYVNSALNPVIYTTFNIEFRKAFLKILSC
Chain of Cytochrome P450 2E1 (P05181 whole entry): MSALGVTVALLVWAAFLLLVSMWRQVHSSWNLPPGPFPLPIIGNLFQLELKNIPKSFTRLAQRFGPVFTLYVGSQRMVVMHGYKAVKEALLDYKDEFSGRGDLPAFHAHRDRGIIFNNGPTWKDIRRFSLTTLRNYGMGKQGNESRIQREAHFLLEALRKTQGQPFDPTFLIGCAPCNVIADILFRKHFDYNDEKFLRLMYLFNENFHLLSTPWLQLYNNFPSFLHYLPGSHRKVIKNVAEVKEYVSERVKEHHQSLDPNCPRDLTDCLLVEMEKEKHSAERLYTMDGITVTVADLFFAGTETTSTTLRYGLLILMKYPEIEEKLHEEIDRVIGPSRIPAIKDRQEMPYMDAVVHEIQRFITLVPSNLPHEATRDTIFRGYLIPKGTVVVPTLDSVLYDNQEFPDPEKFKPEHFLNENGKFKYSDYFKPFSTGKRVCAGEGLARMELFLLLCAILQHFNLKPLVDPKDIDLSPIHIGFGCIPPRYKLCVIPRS

Compound | IC50 (Cytochrome P450 2E1) | Ki (Cytochrome P450 2E1) | IC50 (D(3) dopamine receptor; cho) | IC50 [1] | Ki [1] | IC50 ([2]; mdck) | IC50 (Cytochrome P450 2D6) | Ki (Cytochrome P450 2D6) | IC50 (Mu-type opioid receptor; cho-k1) | IC50 (Cytochrome P450 2C19) | Ki (Cytochrome P450 2C19) | IC50 (D(3) dopamine receptor; read-out: IC50) | Ki (D(3) dopamine receptor; read-out: Ki) | Ki (Mu-type opioid receptor) | IC50 (Mu-type opioid receptor; read-out: IC50) | Ki (D(3) dopamine receptor; cho) | Ki ([2]; mdck) | IC50 ([2]; read-out: IC50) | Ki ([2]; read-out: Ki)
C#C[C@]1(O)CC[C@H]2[C@@H]3[C@H](C)CC4=C(CCC(=O)C4)[C@H]3CC[C@@]21C [TIBOLONE] | Not Active | Not Active | Not Active | Not Active | Not Active | Not Active | Not Active | Not Active | Not Active | – | – | – | – | – | – | – | – | – | –
CN1C(=O)OC(C)(C)C1=O [TRIMETHADIONE] | Not Active | Not Active | Not Active | Not Active | Not Active | Not Active | Not Active | Not Active | Not Active | Not Active | Not Active | – | – | – | – | – | – | – | –
OC[C@@H](O)[C@@H](O)[C@H](O)[C@H](O)CO [MANNITOL] | Not Active | Not Active | Not Active | Not Active | Not Active | Not Active | Not Active | Not Active | Not Active | Not Active | Not Active | – | – | – | – | – | – | – | –
CCN(CC)C(=S)SSC(=S)N(CC)CC | Not Active | Not Active | – | Not Active | Not Active | – | Not Active | Not Active | – | Not Active | Not Active | 1.08 µM | 0.368 µM | 1.42 µM | 3.51 µM | – | – | – | –
O=C(O)c1cc(/N=N/c2ccc(S(=O)(=O)Nc3ccccn3)cc2)ccc1O [SULFASALAZINE] | Not Active | Not Active | Not Active | Not Active | Not Active | Not Active | Not Active | Not Active | Not Active | Not Active | Not Active | – | – | – | – | – | – | – | –
O=C(c1ccccc1)c1ccc2n1CCC2C(=O)O (stereo not drawn) [KETOROLAC] | Not Active | Not Active | Not Active | Not Active | Not Active | Not Active | Not Active | Not Active | Not Active | Not Active | Not Active | – | – | – | – | – | – | – | –
CC[C@H](C)[C@@H](CO[C@@H](Cc1ccccc1)C(=O)N[C@@H](CCS(C)(=O)=O)C(=O)OC(C)C)NC[C@@H](N)CS | Not Active | Not Active | – | Not Active | Not Active | Not Active | – | – | Not Active | Not Active | Not Active | 0.028 µM | 0.00963 µM | – | – | – | – | – | –
CC(C)(C)NC[C@H](O)COc1cccc2c1CCCC2=O [LEVOBUNOLOL] | Not Active | Not Active | Not Active | Not Active | Not Active | Not Active | Not Active | Not Active | Not Active | Not Active | Not Active | – | – | – | – | – | – | – | –
C[N+]1(C)[C@@H]2C[C@@H](OC(=O)[C@H](CO)c3ccccc3)C[C@H]1[C@@H]1O[C@@H]12.[Br-] [METHSCOPOLAMINE BROMIDE] | Not Active | Not Active | Not Active | Not Active | Not Active | – | Not Active | Not Active | Not Active | Not Active | Not Active | – | – | – | – | – | – | – | –
CC1=C(/C=C/C(C)=C/C=C/C(C)=C/C(=O)O)C(C)(C)CCC1 [TRETINOIN] | Not Active | Not Active | Not Active | – | – | Not Active | Not Active | Not Active | Not Active | Not Active | Not Active | – | – | – | – | – | – | – | –
Cc1ccc(S(=O)(=O)NC(=O)NN2CCCCCC2)cc1 [TOLAZAMIDE] | – | – | Not Active | Not Active | Not Active | Not Active | – | – | Not Active | – | – | – | – | – | – | – | – | – | –
Cc1cc2c(s1)Nc1ccccc1N=C2N1CCN(C)CC1 [OLANZAPINE] | Not Active | Not Active | – | – | – | Not Active | Not Active | Not Active | Not Active | Not Active | Not Active | – | – | – | – | – | – | – | –
O=C1CC[C@@]2(O)[C@H]3Cc4ccc(O)c5c4[C@@]2(CCN3CC2CC2)[C@H]1O5 [NALTREXONE] | Not Active | Not Active | Not Active | Not Active | Not Active | Not Active | – | – | – | Not Active | Not Active | – | – | – | – | – | – | – | –
CCN(CC)CCNC(=O)c1cc(Cl)c(N)cc1OC [METOCLOPRAMIDE] | Not Active | Not Active | – | Not Active | Not Active | Not Active | – | – | Not Active | Not Active | Not Active | 0.2 µM | 0.068 µM | – | – | – | – | – | –
CCOc1cc(N)c(Cl)cc1C(=O)NCC1CN(Cc2ccc(F)cc2)CCO1 (stereo not drawn) [MOSAPRIDE] | Not Active | Not Active | Not Active | Not Active | Not Active | Not Active | Not Active | Not Active | Not Active | – | – | – | – | – | – | – | – | – | –
CN1C[C@H](CNC(=O)OCc2ccccc2)C[C@@H]2c3cccc4c3c(cn4C)C[C@H]21 [METERGOLINE] | Not Active | Not Active | – | Not Active | Not Active | – | – | – | Not Active | – | – | – | – | – | – | – | – | – | –

Compound | IC50 (Cytochrome P450 2E1) | Ki (Cytochrome P450 2E1) | IC50 (D(3) dopamine receptor; cho) | IC50 [1] | Ki [1] | IC50 ([2]; mdck) | IC50 (Cytochrome P450 2D6) | Ki (Cytochrome P450 2D6) | IC50 (Mu-type opioid receptor; cho-k1) | IC50 (Cytochrome P450 2C19) | Ki (Cytochrome P450 2C19) | IC50 (D(3) dopamine receptor; read-out: IC50) | Ki (D(3) dopamine receptor; read-out: Ki) | Ki (Mu-type opioid receptor) | IC50 (Mu-type opioid receptor; read-out: IC50) | Ki (D(3) dopamine receptor; cho) | Ki ([2]; mdck) | IC50 ([2]; read-out: IC50) | Ki ([2]; read-out: Ki)
O=[As][O-].[Na+] [SODIUM ARSENITE] | Not Active | Not Active | Not Active | Not Active | Not Active | Not Active | Not Active | Not Active | – | Not Active | Not Active | – | – | – | – | – | – | – | –
CCN1CCCC1CNC(=O)c1cc(S(N)(=O)=O)ccc1OC (stereo not drawn) [SULPIRIDE] | Not Active | Not Active | – | Not Active | Not Active | Not Active | Not Active | Not Active | Not Active | Not Active | Not Active | – | – | – | – | – | – | – | –
CC(Cl)(Cl)Cl [TRICHLOROETHANE] | Not Active | Not Active | Not Active | Not Active | Not Active | Not Active | Not Active | Not Active | – | Not Active | Not Active | – | – | – | – | – | – | – | –
CCC(C)(C)C(=O)O[C@H]1C[C@@H](C)C=C2C=C[C@H](C)[C@H](CC[C@@H]3C[C@@H](O)CC(=O)O3)[C@H]21 [SIMVASTATIN] | – | – | Not Active | – | – | – | – | – | Not Active | – | – | – | – | – | – | – | – | – | –
CCN(CC)N=O [N-NITROSODIETHYLAMINE] | Not Active | Not Active | Not Active | Not Active | Not Active | Not Active | Not Active | Not Active | – | Not Active | Not Active | – | – | – | – | – | – | – | –
CC#C[C@]1(O)CC[C@H]2[C@@H]3CCC4=CC(=O)CCC4=C3[C@@H](c3ccc(N(C)C)cc3)C[C@@]21C [MIFEPRISTONE] | Not Active | Not Active | Not Active | – | – | Not Active | Not Active | Not Active | – | Not Active | Not Active | – | – | – | – | – | – | – | –
LEAD(IV) ACETATE | Not Active | Not Active | Not Active | Not Active | Not Active | Not Active | Not Active | Not Active | – | Not Active | Not Active | – | – | – | – | Not Active | Not Active | – | –
CN(C)CCC=C1c2ccccc2COc2ccccc21 [DOXEPIN] | Not Active | Not Active | – | Not Active | Not Active | – | Not Active | Not Active | Not Active | Not Active | Not Active | – | – | – | – | – | – | – | –
Oc1ccc(/C=C/c2cc(O)cc(O)c2)cc1 [RESVERATROL] | Not Active | Not Active | Not Active | Not Active | Not Active | – | Not Active | Not Active | – | – | – | – | – | – | – | – | – | 2.31 µM | 2.29 µM
C1CCN2C[C@@H]3C[C@@H](CN4CCCC[C@@H]34)[C@H]2C1 [SPARTEINE] | – | – | Not Active | Not Active | Not Active | Not Active | – | – | – | – | – | – | – | – | – | – | – | – | –
CC[C@H](C)C(=O)O[C@H]1CCC=C2C=C[C@H](C)[C@H](CC[C@@H]3C[C@@H](O)CC(=O)O3)[C@H]21 [MEVASTATIN] | Not Active | Not Active | Not Active | – | – | Not Active | Not Active | Not Active | Not Active | Not Active | Not Active | – | – | – | – | – | – | – | –
CNCCCC12CCC(c3ccccc31)c1ccccc12 [MAPROTILINE] | – | – | – | Not Active | Not Active | – | – | – | Not Active | – | – | – | – | – | – | – | – | – | –
Nc1nc(N)c2nc(-c3ccccc3)c(N)nc2n1 | Not Active | Not Active | Not Active | Not Active | Not Active | Not Active | – | – | Not Active | Not Active | Not Active | – | – | – | – | – | – | – | –
Cc1[nH]c(=O)c(C#N)cc1-c1ccncc1 [MILRINONE] | Not Active | Not Active | Not Active | – | – | Not Active | Not Active | Not Active | Not Active | – | – | – | – | – | – | – | – | – | –
CCOC(=O)C1=C(C)NC(C)=C(C(=O)OCC)C1c1ccccc1/C=C/C(=O)OC(C)(C)C [LACIDIPINE] | Not Active | Not Active | – | Not Active | Not Active | – | Not Active | Not Active | Not Active | – | – | 6.17 µM | 2.1 µM | – | – | – | – | 5.73 µM | 5.69 µM
